# What was measured:
# [1] = system: HT-29, MCF-7, NCI-H460, SF268, and IMR90 cells; assay: Cytotoxicity against the panel of cell lines; format: cell-based, Human
# [2] = system: M. tuberculosis, M. smegmatis, C. albicans, E. coli, and A. baumanii; assay: Antimicrobial activity against a panel of microorganisms; format: cell-based
# [3] = system: Vero cells; assay: Vero cell cytotoxicity
# [4] = system: IMR90 cells; assay: Cytotoxicity against IMR90 cells; format: cell-based, Human
# [5] = system: Acinetobacter baumannii; assay: Antimicrobial activity; format: cell-based
# [6] = system: Candida albicans; assay: Antimicrobial activity; format: cell-based
# [7] = system: Mycobacterium smegmatis; assay: Antimicrobial activity; format: cell-based
# [8] = system: Escherichia coli; assay: Antimicrobial activity; format: cell-based
# [9] = system: Mycobacterium tuberculosis
# [10] = system: Staphylococcus aureus; assay: Antimicrobial activity; format: cell-based
compound,measurement,setting,value
"C=C[C@]1(C)CC2C(=O)c3c(NC=O)cccc3C(C)(C)[C@H]2C[C@H]1O (relative stereo) [13-hydroxy dechlorofontonamide (3), 13-hydroxy dechlorofontonamide]",cytotoxicity (in words),"[1]; all cell lines tested (HT-29, MCF-7, NCI-H460, SF268, IMR90)",inactive
same,antimicrobial activity (in words),[2],no antimicrobial activity
"[C-]#[N+]C1=C2c3c[nH]c4cccc(c34)C(C)(C)[C@H]2CC[C@]1(C)C=C [Deschloro hapalindole I (2), deschloro hapalindole I]",antimicrobial activity (in words),[2],no antimicrobial activity
[C-]#[N+][C@@H]1[C@H]2c3c[nH]c4cccc(c34)C(C)(C)[C@@H]2CC[C@]1(C)C=C [Hapalindole H],IC50,"[1]; Homo sapiens, read-out: IC50 values (range over cell lines)",8.5 to 31.9 µM
[C-]#[N+]C1=C2c3c[nH]c4cccc(c34)C(C)(C)[C@H]2C[C@@H](Cl)[C@]1(C)C=C [Hapalindole I],cytotoxicity against Vero cells (in words),[3],no detectable cytotoxicity
"[C-]#[N+][C@H]1C(=C)[C@@H](C=C)C[C@@H]2[C@@H]1c1c[nH]c3cccc(c13)C2(C)C [Hapalindole X (1), hapalindole X]",cytotoxicity (in words),[4],relatively low cytotoxicity
same,cytotoxicity (in words),"[1]; all four cancer cells (HT-29, MCF-7, NCI-H460, SF268)",moderate cytotoxicity
[C-]#[N+][C@@H]1[C@H]2C(=O)c3c(NC=O)cccc3C(C)(C)[C@@H]2CC[C@]1(C)C=C [Hapalonamide H],MIC A. baumanii,[5],> 100 µM
same,MIC C. albicans,[6],< 0.6 µM
same,MIC M. smegmatis,[7],34.3 µM
same,MIC E. coli,[8],> 100 µM
same,IC50,"[3]; read-out: IC50 Vero, Vero cell toxicity",13.6 µM
same,MIC M. tuberculosis,[9],1.2 µM
same,MIC S. aureus,[10],> 100 µM
Gentamycin [reference compound],MIC E. coli,[8],2.3 µM

# Reference: publication PMC3429353 (Bioorganic & medicinal chemistry, 2012)
